Source: patent US8975398B2, “NAMPT inhibitors” (AbbVie Inc., priority 2012, dated 2015)

How the values were obtained:
NAMPT = NAMPT (Homo sapiens, UniProt P43490); assay: Time-Resolved Fluorescence Resonance Energy Transfer (TR-FRET) Binding Assay of NAMPT with PRPP; settings: 2 nM NAMPT, 2 nM probe, 200 uM PRPP and 2.5 mM ATP, equilibrated 16 hours
Protocol: Time-Resolved Fluorescence Resonance Energy Transfer (TR-FRET) Binding Assay of NAMPT with PRPP
Compound handling and data processing were identical to the assay in the absence of substrates (above). Final concentrations were 1× assay buffer, 2% DMSO, 2 nM NAMPT, 2 nM probe, 1 nM Tb-anti-His antibody (Invitrogen #PV5895), 200 uM PRPP and 2.5 mM ATP. Reactions were equilibrated for 16 hours prior to measurement to allow for potential enzymatic modification of test compounds.

[1] = biological target: NAMPT (human, recombinant, C-terminally His-tagged) (Homo sapiens, UniProt P43490); assay: Time-Resolved Fluorescence Resonance Energy Transfer (TR-FRET) Binding Assay of NAMPT; settings: 6.8 nM NAMPT, 200 nM probe, equilibrated 3 hours, absence of substrates
NAMPT (human, recombinant, C-terminally His-tagged), sequence (P43490 whole entry): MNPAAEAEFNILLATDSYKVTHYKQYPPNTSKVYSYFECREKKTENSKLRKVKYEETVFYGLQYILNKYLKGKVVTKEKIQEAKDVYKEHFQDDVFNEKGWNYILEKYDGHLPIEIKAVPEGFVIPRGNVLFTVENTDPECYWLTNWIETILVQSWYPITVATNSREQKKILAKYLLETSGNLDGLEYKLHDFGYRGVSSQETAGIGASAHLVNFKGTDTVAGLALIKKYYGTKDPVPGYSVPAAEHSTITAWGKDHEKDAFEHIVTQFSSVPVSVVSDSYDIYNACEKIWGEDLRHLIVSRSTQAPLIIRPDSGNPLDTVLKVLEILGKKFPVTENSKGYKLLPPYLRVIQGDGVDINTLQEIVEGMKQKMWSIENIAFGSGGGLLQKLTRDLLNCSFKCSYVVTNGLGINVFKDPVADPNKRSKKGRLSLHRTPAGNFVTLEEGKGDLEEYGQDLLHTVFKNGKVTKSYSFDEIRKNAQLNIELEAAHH
Protocol: Determination of the utility of compounds having Formula (I) as binders to and inhibitors of NAMPT was performed using Time-Resolved Fluorescence Resonance Energy Transfer (TR-FRET) binding assays.
Time-Resolved Fluorescence Resonance Energy Transfer (TR-FRET) Binding Assay of NAMPT
Test compounds were serially diluted (typically 11 half log dilutions) in neat DMSO to 50× final concentrations prior to dilution with assay buffer (50 mM HEPES (NaOH), pH 7.5, 100 mM NaCl, 10 mM MgCl2, 1 mM DTT, 1% Glycerol) to 3× and 6% DMSO. Six μL were transferred to 384-well low-volume plates (Owens Corning #3673). To this, 12 μL of a 1.5× solution containing enzyme, probe and antibody were added. Final concentrations in the 18 μL, reactions were 1× assay buffer, 2% DMSO, 6.8 nM NAMPT (human, recombinant, C-terminally His-tagged), 200 nM probe (a potent nicotinamide-competitive inhibitor conjugated to Oregon Green 488) and 1 nM Tb-anti-His antibody (Invitrogen #PV5895). Reactions were equilibrated at room temperature for 3 hours prior to reading on an Envision multi-label plate reader (Perkin Elmer; Ex=337 nm, Em=520 and 495 nm). Time-resolved FRET ratios (Em520/Em495) were normalized to controls, plotted as a function of compound concentration and fit with the four-parameter logistic equation to determine IC50s.

NAMPT, sequence (P43490 whole entry): as above

## CC(C)CCC(=O)N1CCC(Oc2ccc(NC(=O)C3CN(c4cccnc4)C3)cc2)CC1 [Example 37, N-(4-{[1-(4-methylpentanoyl)piperidin-4-yl]oxy}phenyl)-1-(pyridin-3-yl)azetidine-3-carboxamide]
NAMPT
  IC50: 0.983 nM
[1]
  IC50: 68.9 nM

## COCC(=O)N1CCC(Oc2ccc(NC(=O)C3CN(c4cccnn4)C3)cc2)CC1 [Example 246, N-(4-{[1-(methoxyacetyl)piperidin-4-yl]oxy}phenyl)-1-(pyridazin-3-yl)azetidine-3-carboxamide]
NAMPT
  IC50: 0.676 nM
[1]
  IC50: 178 nM

## Cc1ccc(C(=O)N2CCC(c3ccc(NC(=O)C4CN(c5cccnn5)C4)cc3)CC2)c(C)c1 [Example 358, N-{4-[1-(2,4-dimethylbenzoyl)piperidin-4-yl]phenyl}-1-(pyridazin-3-yl)azetidine-3-carboxamide]
NAMPT
  IC50: 0.815 nM
[1]
  IC50: 15.9 nM

## CC(C)Cn1cc(-c2ccc(NC(=O)C3CN(c4ccnnc4)C3)cc2)cn1 [Example 148, N-{4-[1-(2-methylpropyl)-1H-pyrazol-4-yl]phenyl}-1-(pyridazin-4-yl)azetidine-3-carboxamide]
NAMPT
  IC50: 20.1 nM
[1]
  IC50: 42.9 nM

## Cc1ncccc1N1CC(C(=O)Nc2ccc(C3CCN(C(=O)[C@H]4CCC(=O)N4)CC3)cc2)C1 [Example 167, 1-(2-methylpyridin-3-yl)-N-{4-[1-(5-oxo-D-prolyl)piperidin-4-yl]phenyl}azetidine-3-carboxamide]
NAMPT
  IC50: 204 nM
[1]
  IC50: 3740 nM

## CCC(C)(C)C(=O)N1CCC(Oc2ccc(NC(=O)C3CN(c4cccnn4)C3)cc2)CC1 [Example 248, N-(4-{[1-(2,2-dimethylbutanoyl)piperidin-4-yl]oxy}phenyl)-1-(pyridazin-3-yl)azetidine-3-carboxamide]
NAMPT
  IC50: 0.817 nM
[1]
  IC50: 82.6 nM

## Cc1ncccc1N1CC(C(=O)Nc2ccc(C3CCN(C(=O)CCN4CCCCC4)CC3)cc2)C1 [Example 190, 1-(2-methylpyridin-3-yl)-N-(4-{1-[3-(piperidin-1-yl)propanoyl]piperidin-4-yl}phenyl)azetidine-3-carboxamide]
NAMPT
  IC50: 103 nM
[1]
  IC50: 1910 nM

## CC(=O)N1CCC(c2ccc(NC(=O)C3CN(c4cccnn4)C3)cc2)CC1 [Example 316, N-[4-(1-acetylpiperidin-4-yl)phenyl]-1-(pyridazin-3-yl)azetidine-3-carboxamide]
NAMPT
  IC50: 0.924 nM
[1]
  IC50: 104 nM

## O=C(Nc1ccc(OC2CN(C(=O)c3ccc(F)cc3)C2)cc1)C1CN(c2ccnnc2)C1 [Example 199, N-(4-{[1-(4-fluorobenzoyl)azetidin-3-yl]oxy}phenyl)-1-(pyridazin-4-yl)azetidine-3-carboxamide]
NAMPT
  IC50: 28 nM
[1]
  IC50: 33.7 nM

## CC[C@H](C)C(=O)N1CCC(c2ccc(NC(=O)C3CN(c4ccnnc4)C3)cc2)CC1 [Example 143, N-(4-{1-[(2S)-2-methylbutanoyl]piperidin-4-yl}phenyl)-1-(pyridazin-4-yl)azetidine-3-carboxamide]
NAMPT
  IC50: 31.1 nM
[1]
  IC50: 17 nM

## Cc1ccc(C(=O)N2CCC(c3ccc(NC(=O)C4CN(c5cccnn5)C4)cc3)CC2)s1 [Example 377, N-(4-{1-[(5-methylthiophen-2-yl)carbonyl]piperidin-4-yl}phenyl)-1-(pyridazin-3-yl)azetidine-3-carboxamide]
NAMPT
  IC50: 0.632 nM
[1]
  IC50: 16.2 nM

## CC(C)(O)C(=O)N1CCC(c2ccc(NC(=O)C3CN(c4ccnnc4)C3)cc2)CC1 [Example 85, N-{4-[1-(2-hydroxy-2-methylpropanoyl)piperidin-4-yl]phenyl}-1-(pyridazin-4-yl)azetidine-3-carboxamide]
NAMPT
  IC50: 17 nM
[1]
  IC50: 32.2 nM

## CC1CC1C(=O)N1CCC(Oc2ccc(NC(=O)C3CN(c4cccnc4)C3)cc2)CC1 (centres unmarked) [Example 35, N-[4-({1-[(2-methylcyclopropyl)carbonyl]piperidin-4-yl}oxy)phenyl]-1-(pyridin-3-yl)azetidine-3-carboxamide]
NAMPT
  IC50: 0.866 nM
[1]
  IC50: 91.6 nM

## O=C(Nc1ccc(OC2CCN(C(=O)C3CC3)CC2)cc1)C1CN(c2ccnnc2)C1 [Example 301, N-(4-{[1-(cyclopropylcarbonyl)piperidin-4-yl]oxy}phenyl)-1-(pyridazin-4-yl)azetidine-3-carboxamide]
NAMPT
  IC50: 48.3 nM
[1]
  IC50: 143 nM

## O=C(Nc1ccc(OC2CCN(C(=O)C3CCC(F)(F)CC3)CC2)cc1)C1CN(c2ccnnc2)C1 [Example 270, N-[4-({1-[(4,4-difluorocyclohexyl)carbonyl]piperidin-4-yl}oxy)phenyl]-1-(pyridazin-4-yl)azetidine-3-carboxamide]
NAMPT
  IC50: 35.7 nM
[1]
  IC50: 74.8 nM

## Cc1ncccc1N1CC(C(=O)Nc2ccc(C3CCN(C(=O)C(C)C)CC3)cc2)C1 [Example 29, N-{4-[1-(2-methylpropanoyl)piperidin-4-yl]phenyl}-1-(2-methylpyridin-3-yl)azetidine-3-carboxamide]
NAMPT
  IC50: 16.7 nM
[1]
  IC50: 79.8 nM

## CC(C)(C)CC(=O)N1CCC(c2ccc(NC(=O)C3CN(c4cccnc4)C3)cc2)CC1 [Example 132, N-{4-[1-(3,3-dimethylbutanoyl)piperidin-4-yl]phenyl}-1-(pyridin-3-yl)azetidine-3-carboxamide]
NAMPT
  IC50: 0.441 nM
[1]
  IC50: 8.46 nM

## O=C(Nc1ccc(OC2CCN(C(=O)C3CCOCC3)CC2)cc1)C1CN(c2cccnn2)C1 [Example 214, 1-(pyridazin-3-yl)-N-(4-{[1-(tetrahydro-2H-pyran-4-ylcarbonyl)piperidin-4-yl]oxy}phenyl)azetidine-3-carboxamide]
NAMPT
  IC50: 0.841 nM
[1]
  IC50: 165 nM

## Cc1ncccc1N1CC(C(=O)Nc2ccc(C3CCN(C(=O)c4ccsc4)CC3)cc2)C1 [Example 169, 1-(2-methylpyridin-3-yl)-N-{4-[1-(thiophen-3-ylcarbonyl)piperidin-4-yl]phenyl}azetidine-3-carboxamide]
NAMPT
  IC50: 67.9 nM
[1]
  IC50: 33.7 nM

## O=C(Nc1ccc(OC2CCN(C(=O)CC3CC3)CC2)cc1)C1CN(c2cccnn2)C1 [Example 233, N-(4-{[1-(cyclopropylacetyl)piperidin-4-yl]oxy}phenyl)-1-(pyridazin-3-yl)azetidine-3-carboxamide]
NAMPT
  IC50: 0.614 nM
[1]
  IC50: 113 nM

## O=C(Nc1ccc(OC2CCN(C(=O)CCC(F)(F)F)CC2)cc1)C1CN(c2cccnc2)C1 [Example 51, 1-(pyridin-3-yl)-N-(4-{[1-(4,4,4-trifluorobutanoyl)piperidin-4-yl]oxy}phenyl)azetidine-3-carboxamide]
NAMPT
  IC50: 1.17 nM
[1]
  IC50: 109 nM

## CC(C)C(=O)N1CCC(Oc2ccc(NC(=O)C3CN(c4ccnnc4)C3)cc2)CC1 [Example 294, N-(4-{[1-(2-methylpropanoyl)piperidin-4-yl]oxy}phenyl)-1-(pyridazin-4-yl)azetidine-3-carboxamide]
NAMPT
  IC50: 55.1 nM
[1]
  IC50: 112 nM

## O=C(Nc1ccc(OC2CCN(C(=O)c3ccoc3)CC2)cc1)C1CN(c2cccnc2)C1 [Example 54, N-(4-{[1-(furan-3-ylcarbonyl)piperidin-4-yl]oxy}phenyl)-1-(pyridin-3-yl)azetidine-3-carboxamide]
NAMPT
  IC50: 0.806 nM
[1]
  IC50: 72.1 nM

## O=C(Nc1ccc(OC2CCN(C(=O)c3ccc(F)cc3F)CC2)cc1)C1CN(c2cccnn2)C1 [Example 229, N-(4-{[1-(2,4-difluorobenzoyl)piperidin-4-yl]oxy}phenyl)-1-(pyridazin-3-yl)azetidine-3-carboxamide]
NAMPT
  IC50: 0.584 nM
[1]
  IC50: 48 nM

## O=C(Nc1ccc(C2CCN(C(=O)CC[N+](=O)[O-])CC2)cc1)C1CN(c2cccnn2)C1 [Example 336, N-{4-[1-(3-nitropropanoyl)piperidin-4-yl]phenyl}-1-(pyridazin-3-yl)azetidine-3-carboxamide]
NAMPT
  IC50: 0.494 nM
[1]
  IC50: 77.3 nM

## O=C(Nc1ccc(OC2CCN(C(=O)C3CCCC3)CC2)cc1)C1CN(c2cccnc2)C1 [Example 52, N-(4-{[1-(cyclopentylcarbonyl)piperidin-4-yl]oxy}phenyl)-1-(pyridin-3-yl)azetidine-3-carboxamide]
NAMPT
  IC50: 0.696 nM
[1]
  IC50: 51 nM

## CC(C)(O)C(=O)N1CCC(c2ccc(NC(=O)C3CN(c4cccnc4)C3)cc2)CC1 [Example 20, N-{4-[1-(2-hydroxy-2-methylpropanoyl)piperidin-4-yl]phenyl}-1-(pyridin-3-yl)azetidine-3-carboxamide]
NAMPT
  IC50: 0.296 nM
[1]
  IC50: 6.74 nM

## CC(C)(C)OC(=O)N1CCC(Oc2ccc(C(=O)N[C@H]3CCN(c4cccnc4)C3)cc2)CC1 [Example 27, tert-butyl 4-(4-{[(3S)-1-(pyridin-3-yl)pyrrolidin-3-yl]carbamoyl}phenoxy)piperidine-1-carboxylate]
NAMPT
  IC50: 11.2 nM

## CC(C)(C)OC(=O)N1CCC(Oc2ccc(C(=O)N[C@@H]3CCN(c4cccnc4)C3)cc2)CC1 [Example 28, tert-butyl 4-(4-{[(3R)-1-(pyridin-3-yl)pyrrolidin-3-yl]carbamoyl}phenoxy)piperidine-1-carboxylate]
NAMPT
  IC50: 2.51 nM
